{"source": "patent US11905518B2", "about": "“Small auxin upregulated (SAUR) gene for the improvement of root system architecture, waterlogging tolerance, drought resistance and yield in plants and methods of uses” (Curators of the University of Missouri, priority 2018, dated 2024)", "test_system": "NILs (NIL147_aa and NIL147_AA)", "experiment": "Waterlogging treatment of NILs with auxin biosynthesis inhibitor PCIB", "format": "in vivo, soybean", "experimental": "FIGS. 7A-7C depict involvement of auxin in the regulation of waterlogging tolerance. Complementation of qWL_Gm03 by auxin biosynthesis inhibitor in waterlogging tolerance (FIG. 7A) and induction of adventitious roots (FIG. 7B). The two lines were waterlogging treated for 10 days using water (control) and 10 μM p-Chlorophen-oxyisobutyric acid (PCIB: an auxin biosynthesis inhibitor). Then plants were allowed to recover for 7 days (left) before evaluation for flooding injury scores and adventitious root rating. Data shown are means±standard deviations of 9 biological replicates (soil pots) and each replicate contains 2 to 3 plants. Student's-t-test was used to compare means between NIL147_aa and NIL147_AA. FIG. 7C Expression of GmARF20 in the roots during waterlogging treatment. GmARF20 in soybean is the closest homologue of AtARF19 in Arabidopsis (Ha et al. 2013). Data shown are means±standard deviations of two biological replicates and each replicate contains 10 plants.\nWaterlogging test were performed in both field and greenhouse. Field tests for RIL populations and fine-mapping were conducted at the Lee Farm at the DRC in Portageville, MO The evaluation of NILs were performed at four locations, including DRC (MO), Rhower Research Station (AR), Delta Research and Extension Center (MS) and Red River Research Station (LA). The soil types of the four locations were Sharkey clay (very fine, smectitic, thermic Chromic Epiaquerts). Each lines were planted in hill plots at a density of 8 seeds per plot with 1 meter spacing with 2 to 3 replications. Waterlogging treatments were imposed by flood irrigation. Water was pumped on the field when 80% of the lines within each maturity block were at the R1 growth stage (Fehr and Caviness 1977). […]\nAuxin generally promotes root initiation and elongation (reviewed by Overvoorde et al. 2010). Therefore, the involvement of auxin in waterlogging tolerance was further evaluated by the treatment of an auxin biosynthesis inhibitor: p-Chlorophen-oxyisobutyric acid (PCIB) on the NILs (NIL147_aa and NIL147_AA) during waterlogging. […]", "key": {"[1]": {"details": "10 μM PCIB vs water control, waterlogging treated for 10 days, 7 days recovery, NIL147_aa and NIL147_AA"}}}
{"smiles": "CC(C)(Oc1ccc(Cl)cc1)C(=O)O", "note": "[PCIB, p-Chlorophen-oxyisobutyric acid]", "values": [{"measurement": "genotypic differences of qWL_Gm03 in waterlogging tolerance performance and formation of adventitious/aerial roots", "setting": "10 μM PCIB during waterlogging, NIL147_aa vs NIL147_AA", "result": "complement the genotypic differences"}, {"measurement": "formation of adventitious/aerial roots (adventitious root rating)", "setting": "[1]", "result": "significantly impair"}, {"measurement": "waterlogging tolerance (flooding injury scores)", "setting": "[1]", "result": "significantly impair"}]}
